Measurements taken from ChEMBL document CHEMBL1154016, “An efficient synthesis and biological study of novel indolyl-1,3,4-oxadiazoles as potent anticancer agents” (Bioorg Med Chem Lett, 2009).

How the values were obtained:
[1] = tested on: MDA-MB-231; assay: Cytotoxicity against human MDA-MB-231 cells by MTT assay; type: functional, cell-based
[2] = tested on: PC-3; assay: Cytotoxicity against human PC3 cells by MTT assay; type: functional, cell-based
[3] = tested on: DU-145; assay: Cytotoxicity against human DU145 cells by MTT assay; type: functional, cell-based
[4] = tested on: MIA PaCa-2; assay: Cytotoxicity against human MIAPaCa2 cells by MTT assay; type: functional, cell-based
[5] = tested on: LNCaP; assay: Cytotoxicity against human LNCAP cells by MTT assay; type: functional, cell-based
[6] = tested on: MCF7; assay: Cytotoxicity against human MCF7 cells by MTT assay; type: functional, cell-based
[7] = tested on: MCF7; assay: Selectivity ratio of IC50 for human MIAPaCa2 cells to IC50 for human MCF7 cells; type: functional

| Compound | IC50 [1] | IC50 [2] | IC50 [3] | IC50 [4] | IC50 [5] | IC50 [6] | Ratio IC50 [7] |
| --- | --- | --- | --- | --- | --- | --- | --- |
| Clc1ccc(-c2nnc(-c3c[nH]c4ccccc34)o2)cc1 | > 1000 µM | 41.6 µM | 192 µM | 6460 µM | 583 µM | 48.2 µM |  |
| COc1cc(-c2nnc(-c3c[nH]c4ccccc34)o2)ccc1OCc1ccccc1 | > 1000 µM | > 1000 µM | > 1000 µM | > 1000 µM | > 1000 µM | > 1000 µM |  |
| c1ccc(-c2nnc(-c3c[nH]c4ccccc34)o2)cc1 | > 1000 µM | > 1000 µM | > 1000 µM | > 1000 µM | > 1000 µM | 388 µM |  |
| COc1ccc(-c2nnc(-c3c[nH]c4ccccc34)o2)cc1 | > 1000 µM | > 1000 µM | > 1000 µM | > 1000 µM | > 1000 µM | > 1000 µM |  |
| COc1cc(-c2nnc(-c3c[nH]c4ccccc34)o2)ccc1O | > 1000 µM | > 1000 µM | > 1000 µM | > 1000 µM | > 1000 µM | > 1000 µM |  |
| c1ccc2c(-c3nnc(-c4ccncc4)o3)c[nH]c2c1 | > 1000 µM | 4.1 µM | 20.4 µM | 1.6 µM | 10 µM | 1 µM |  |
| Cc1nnc(-c2c[nH]c3ccccc23)o1 | > 1000 µM | > 1000 µM | > 1000 µM | 145 µM | > 1000 µM | 198 µM |  |
| COc1ccc(-c2nnc(-c3c[nH]c4ccccc34)o2)c(OC)c1OC | > 1000 µM | > 1000 µM | > 1000 µM | > 1000 µM | > 1000 µM | 121 µM |  |
| FC(F)(F)c1nnc(-c2c[nH]c3ccccc23)o1 | > 1000 µM | > 1000 µM | > 1000 µM | > 1000 µM | > 1000 µM | > 1000 µM |  |
| c1cncc(-c2nnc(-c3c[nH]c4ccccc34)o2)c1 | > 1000 µM | 711 µM | 170 µM | 0.9 µM | 69.4 µM | 5.4 µM |  |
| c1ccc(Cc2nnc(-c3c[nH]c4ccccc34)o2)cc1 | > 1000 µM | > 1000 µM | > 1000 µM | 934 µM | > 1000 µM | 39.2 µM | 24 |
| COc1ccc(-c2nnc(-c3c[nH]c4ccccc34)o2)cc1OC | > 1000 µM | > 1000 µM | > 1000 µM | > 1000 µM | > 1000 µM | 557 µM |  |
| COc1cc(-c2nnc(-c3cn(C)c4ccccc34)o2)ccc1OCc1ccccc1 | > 1000 µM | > 1000 µM | > 1000 µM | 1.4 µM | > 1000 µM | 35.2 µM |  |
